Experimental findings from PMC9551036, “A selective and orally bioavailable VHL-recruiting PROTAC achieves SMARCA2 degradation in vivo” (Nature Communications, 2022) are described below.

Where “and” joins values, the source holds several entries; their conditions need not be identical. Equal values may be shown once. Read-outs that look alike come from different tables or passages of the source. A value given as a limit tells only on which side of the number the result lay.

One experiment deals with NCI-H1568 cells. Description: Cell viability assay (CellTiter Glo) in NCI-H1568. The settings on record: for IC50: CellTiter Glo, individual replicates, read-out: NCI-H1568 (18h) CTG; for EC50: read-out: EC50 cell proliferation (CellTiter Glo). It counts as cell-based, human. How it is done:
500–2000 cells were seeded in white, clear bottom 96-well plates (Corning or Perkin Elmer) in 180–200 µl medium per well. The next day, compounds were added using a digital dispenser and a T0 sample was measured for reference. […], and viability (luminescence) was measured using CellTiter Glo or CellTiter Glo 2.0 (Promega) according to manufacturer’s instructions after equilibrating cells and reagents at room temperature and 10–20 min incubation time while shaking.
In general terms: In ATP-based viability assays light output follows the ATP content of the culture.

The target in experiment [1] is T1, VCB: PROTAC: SMARCA2^BD ternary complex (Homo sapiens, UniProt P51531).
T1 construct: P51531-2, residues 1373-1493 with additional N-terminal SM residues; GST (TEV site) (N); His6 (TEV site) (N, cleaved yes); made in house; host or cells: SMARCA2^BD: Escherichia coli BL21(DE3)
Nature of the experiment: TR-FRET ternary complex affinity and cooperativity, SMARCA2. The experiment is classed as binding. For orientation: In TR-FRET formats the signal depends on donor and acceptor labels being close together.

For experiment [2], the target named is T2, (Homo sapiens, UniProt P51532).
T2 construct: P51532, residues 1448–1569 with additional N-terminal SM residues; GST (TEV site) (N); His6 (TEV site) (N, cleaved yes); made in house; host or cells: SMARCA4^BD: Escherichia coli BL21(DE3)
Nature of the experiment: TR-FRET ternary complex affinity and cooperativity, SMARCA4. It counts as binding.

In another experiment the target is T3, PBRM1 BD (Homo sapiens, UniProt Q86U86).
T3 construct: GST (TEV site) (N); made in house; host or cells: Escherichia coli BL21(DE3)
Nature of the experiment: TR-FRET binary and ternary (PROTAC + VCB) affinity, PBRM1 bromodomain. The experiment is classed as binding. The settings on record: individual replicates.

A further experiment has as its target SMARCA2 (Homo sapiens, UniProt P51531). Nature of the experiment: Imaging-based SMARCA2 protein assay in RKO cells. It counts as cell-based. Further details: endogenous in cells; host or cells: RKO, NCI-H1568, A549, HCT116, LU99, HCC-364, HCT-15, HCC4006, SK-N-AS. The settings on record: individual replicates. As for the experimental part:
1250 cells per well in 60 µl medium were plated in flat bottom, poly-lysin coated 384-well plates (CellCarrier Ultra, Perkin Elmer). The next day, test compounds (10 µl of serial dilutions) and DMSO controls were diluted in DMEM medium such that the final DMSO content was <1% or were added using an ultrasound dispensing system. 4 wells were reserved for a background measurement. […] After aspirating the fixing solution, the cells were washed once with 25 µl PBS. 25 µl of blocking buffer (10% goat serum in PBS) was added and cells were incubated for 30 min, then washed once with PBS. […] Cells were again washed once with PBS. […] The cell layer was then washed once with 25 µl PBS, the wells were filled with 25 µl PBS and the plates were sealed with an adhesive sheet. They were then imaged on the Opera Phoenix (mean intensity in the nucleus). […] EC50 values were computed using a 4-parametric logistic model.

Setting [3] is: TR-FRET competition for SMARCA2BD, without VCB, mean ± SD, read-out: TR-FRET SMARCA2BD EC50.
[4] abbreviates: binary, PROTAC alone, individual replicates, read-out: SMARCA2 BD EC50.
The mark [5] stands for this setting: TR-FRET competition for SMARCA4BD, without VCB, mean ± SD, read-out: TR-FRET SMARCA4BD EC50.
The mark [6] stands for this setting: binary, PROTAC alone, individual replicates, read-out: SMARCA4 BD EC50.
[7] abbreviates: PROTAC + VCB, read-out: Ternary PBRM1 BD EC50 (PROTAC + VCB).
Where [8] appears, read: binary, PROTAC alone, read-out: PBRM1 EC50.
The mark [9] stands for this setting: 4h, read-out: RKO (4h) SMARCA2 DC50.
The mark [10] stands for this setting: 18h, read-out: RKO (18h) SMARCA2 DC50.

Sequence of SMARCA2 (P51531 whole entry): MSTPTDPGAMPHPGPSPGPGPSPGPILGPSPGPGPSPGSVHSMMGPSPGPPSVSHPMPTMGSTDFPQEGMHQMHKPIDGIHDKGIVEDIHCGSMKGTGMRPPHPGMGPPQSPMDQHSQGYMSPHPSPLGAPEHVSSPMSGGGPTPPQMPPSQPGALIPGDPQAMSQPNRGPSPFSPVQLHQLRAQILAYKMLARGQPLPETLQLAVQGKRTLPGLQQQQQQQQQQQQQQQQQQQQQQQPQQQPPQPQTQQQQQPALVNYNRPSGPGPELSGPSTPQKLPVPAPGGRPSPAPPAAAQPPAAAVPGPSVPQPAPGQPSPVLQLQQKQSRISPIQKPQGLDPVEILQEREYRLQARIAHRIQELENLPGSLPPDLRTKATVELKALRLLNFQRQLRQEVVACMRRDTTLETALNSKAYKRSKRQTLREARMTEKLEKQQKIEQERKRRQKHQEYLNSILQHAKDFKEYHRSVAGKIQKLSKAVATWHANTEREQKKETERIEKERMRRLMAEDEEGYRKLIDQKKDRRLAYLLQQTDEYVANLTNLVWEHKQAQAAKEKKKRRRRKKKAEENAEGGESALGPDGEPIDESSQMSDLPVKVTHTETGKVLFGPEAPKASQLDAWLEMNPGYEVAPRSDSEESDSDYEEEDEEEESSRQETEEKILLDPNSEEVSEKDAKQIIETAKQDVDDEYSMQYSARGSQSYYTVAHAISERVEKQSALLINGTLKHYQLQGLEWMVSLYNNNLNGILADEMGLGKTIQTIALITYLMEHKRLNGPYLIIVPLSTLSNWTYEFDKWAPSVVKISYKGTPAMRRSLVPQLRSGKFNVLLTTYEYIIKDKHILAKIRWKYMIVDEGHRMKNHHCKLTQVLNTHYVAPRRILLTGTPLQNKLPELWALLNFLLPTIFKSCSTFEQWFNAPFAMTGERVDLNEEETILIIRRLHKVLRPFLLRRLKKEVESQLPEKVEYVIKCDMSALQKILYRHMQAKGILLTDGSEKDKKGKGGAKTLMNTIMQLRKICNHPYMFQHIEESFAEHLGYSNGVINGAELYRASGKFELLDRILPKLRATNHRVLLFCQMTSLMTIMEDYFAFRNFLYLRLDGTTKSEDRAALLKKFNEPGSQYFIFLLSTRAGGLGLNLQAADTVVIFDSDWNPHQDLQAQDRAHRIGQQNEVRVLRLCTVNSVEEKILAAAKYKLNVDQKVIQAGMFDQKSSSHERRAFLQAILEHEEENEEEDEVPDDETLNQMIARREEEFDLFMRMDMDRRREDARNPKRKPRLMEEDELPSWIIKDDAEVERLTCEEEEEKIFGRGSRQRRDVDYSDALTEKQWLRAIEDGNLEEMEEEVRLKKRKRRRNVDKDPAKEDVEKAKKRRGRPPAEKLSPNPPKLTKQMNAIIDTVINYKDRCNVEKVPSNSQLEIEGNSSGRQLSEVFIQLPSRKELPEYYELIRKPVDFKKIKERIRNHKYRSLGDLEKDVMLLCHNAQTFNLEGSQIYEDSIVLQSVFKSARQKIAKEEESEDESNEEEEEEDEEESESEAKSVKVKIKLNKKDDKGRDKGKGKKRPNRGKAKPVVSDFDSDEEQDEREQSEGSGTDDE
T1 sequence (P51531 with tags, fused parts or gaps isoform P51531-2): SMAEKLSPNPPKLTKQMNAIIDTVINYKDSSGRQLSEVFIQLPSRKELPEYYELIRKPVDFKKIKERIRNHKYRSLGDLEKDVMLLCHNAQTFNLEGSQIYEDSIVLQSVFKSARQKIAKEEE
T2 sequence (P51532 1448-1569): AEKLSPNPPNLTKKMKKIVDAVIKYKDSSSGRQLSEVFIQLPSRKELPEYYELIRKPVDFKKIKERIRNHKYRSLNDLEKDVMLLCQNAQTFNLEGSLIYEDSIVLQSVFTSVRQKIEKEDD

With `Nc1cccc2c1c(=O)nc1n(C3CCCC3)c3ccccc3n21` [compound 2], the IC50 in the experiment with NCI-H1568 cells (Homo sapiens, NCI-H1568, 18 h) was over 10000 nM. For the same molecule, the EC50 in the experiment with NCI-H1568 cells (Homo sapiens, NCI-H1568, […]) was over 10000 nM; in experiment [1] (setting [3]), 1770 nM; in experiment [1] (setting [4]), 1620 nM and 1970 nM and 1530 nM and 2040 nM; in experiment [2] (setting [5]), 2400 nM; in experiment [2] (setting [6]), 2340 nM and 2880 nM and 2050 nM; at PBRM1 BD (setting [7]), 934 nM and 1020 nM and 925 nM. The EC50 at PBRM1 BD (setting [8]) was 1080 nM and 1000 nM and 929 nM. Further, the DC50 on SMARCA2 (setting [9]) and on SMARCA2 (setting [10]) was over 25000 nM in each case.

For the molecule `Cc1ncsc1-c1ccc([C@H](CCCCCN2CCC(c3ccc4c(c3)n(C3CCCC3)c3nc(=O)c5c(Br)cccc5n43)CC2)NC(=O)[C@@H]2C[C@@H](O)CN2C(=O)[C@@H](NC(=O)C2(F)CC2)C(C)(C)C)cc1` [compound 11], the EC50 in the experiment with NCI-H1568 cells (Homo sapiens, NCI-H1568, […]) is 7 ± 3 nM; in experiment [1] (setting [3]), 123 ± 45 nM; in experiment [1] (setting [4]), 183 nM and 73.1 nM and 107 nM and > 400 nM and 65.7 nM and 113 nM and 145 nM and 121 nM and 105 nM and 125 nM and 146 nM and 228 nM and 144 nM; in experiment [2] (setting [5]), 279 ± 40 nM; in experiment [2] (setting [6]), 241 nM and 322 nM and 280 nM; at PBRM1 BD (setting [7]) it was 3.17 nM and 4.26 nM and 3.96 nM. The EC50 at PBRM1 BD (setting [8]) is 43.1 nM and 50 nM and 41.1 nM and 31.5 nM. In the experiment on NCI-H1568 cells (NCI-H1568, (18h)), the IC50 is 8.72 nM and 10.4 nM and 5.64 nM and 9.09 nM and 2.95 nM and 6.31 nM. The DC50 was 1.71 nM and 0.766 nM and 2.04 nM and 3.68 nM on SMARCA2 (setting [9]); 0.942 nM and 1.07 nM and 0.993 nM and 0.885 nM on SMARCA2 (setting [10]).

`CN1CCN(c2nc(=O)c3c(Br)cccc3o2)CC1` [compound 15]: the EC50 in the experiment on NCI-H1568 cells (NCI-H1568 ([…]), mean ± SD) was over 10000 nM; in experiment [1] (setting [4]), over 10000 nM; in experiment [2] (setting [6]) it was over 10000 nM; at PBRM1 BD (setting [7]) it was over 10000 nM; on PBRM1 BD (setting [8]), over 10000 nM. For the same molecule, the IC50 in the experiment on NCI-H1568 cells (NCI-H1568, (18h)) is over 10000 nM. Also, the DC50 at SMARCA2 (setting [9]) and on SMARCA2 (setting [10]) was over 25000 nM throughout.

Regarding `Cc1ncsc1-c1ccc(CNC(=O)[C@@H]2C[C@@H](O)CN2C(=O)[C@@H](NC(=O)C2(F)CC2)C(C)(C)C)c(OCCN2CCC(c3ccc4c(c3)n(C3CCCC3)c3nc(=O)c5c(Br)cccc5n43)CC2)c1` [compound 20], the EC50 in the experiment on NCI-H1568 cells (NCI-H1568 ([…]), mean ± SD) was 74 ± 52 nM; in experiment [1] (setting [3]) it was 78 ± 20 nM; in experiment [1] (setting [4]), 95.1 nM and 98.5 nM and 63.7 nM and 90.1 nM and 54.6 nM; in experiment [2] (setting [5]) it was 120 ± 17 nM; in experiment [2] (setting [6]), 101 nM and 114 nM and 130 nM and 140 nM; at PBRM1 BD (setting [7]), 30.2 nM and 37.8 nM and 37.5 nM. For the same molecule, the EC50 at PBRM1 BD (setting [8]) is 35.1 nM and 43.6 nM and 36.5 nM and 35.9 nM. The IC50 in the experiment on NCI-H1568 cells (NCI-H1568, (18h)) is 80.9 nM and 35.3 nM and 140 nM. Further, the DC50 at SMARCA2 (setting [9]) is over 25000 nM.
